From US20180353500A1, “ADMINISTRATION OF DEUTERATED CFTR POTENTIATORS” (Vertex Pharmaceuticals (Europe) Limited, priority 2015, published 2018) come the findings set out here.

Data set [1] is described as follows: Human crossover study for D9-ivacaftor and D18-ivacaftor (25 mg single dose). It counts as in vivo. As to conditions: 25 mg single oral dose, aqueous suspension, fasted. Here is the method: Six healthy volunteers were enrolled in a cross-over comparison of 25 mg D9-ivacaftor (CTP-656) and 25 mg D18-ivacaftor (FIG. 7A). The objective of the study was to compare the pharmacokinetics of a single dose of 25 mg D9-ivacaftor and 25 mg D18-ivacaftor. Doses of D9-ivacaftor (CTP-656) and D18-ivacaftor were administered as an aqueous suspension. All doses of D9-ivacaftor (CTP-656) and D18-ivacaftor were administered to fasted subjects (three subjects per group). There was a 7 day washout between doses.

Data set [2] in a line: Parent vs. metabolite pharmacokinetic profile after a single 150 mg oral dose. It counts as in vivo, human. The following applies: 150 mg single oral dose, FIG. 3. The method, then: Ten healthy male and female volunteers were enrolled in a single ascending dose study of 3 doses of CTP-656 (75, 150 and 300 mg), with a cross-over comparison of 150 mg CTP-656 and 150 mg Kalydeco® (the trade name of ivacaftor) (FIG. 5). Doses of CTP-656 were administered as an aqueous suspension, and Kalydeco was administered as a tablet. All doses of CTP-656 and Kalydeco were administered within 30 minutes after the start of a high-fat containing breakfast. There was a 7 day washout between doses. The objective of the study was to compare the pharmacokinetics of single ascending doses (75, 150, and 300 mg) of CTP-656, to compare the pharmacokinetics of a single dose of 150 mg CTP-656 and 150 mg Kalydeco and to assess the safety and tolerability of CTP-656. […] There is a significant reduction in the production of the metabolites D8-M1 and D6-M6 from CTP-656 relative to the production of the metabolites M1 and M6 from ivacaftor. Thus, the parent-to-M1 ratio of AUC0-24 hr for CTP-656/D8-M1 is 2.0, compared to 0.58 for the ratio of ivacaftor to M1. […] Further, the parent-to-M6 ratio of AUC0-24 hr for CTP-656/D6-M6 is 4.0, compared to 1.5 for the ratio of ivacaftor to M6. […] As a result, the most pharmacologically-active species (i.e., the parent) is the most abundant species for CTP-656, but not for ivacaftor.

For `[2H]C([2H])([2H])C(c1cc(C(C)(C)C)c(NC(=O)c2c[nH]c3ccccc3c2=O)cc1O)(C([2H])([2H])[2H])C([2H])([2H])[2H]` [CTP-656], the “PK profile compared to D18-ivacaftor” value in data set [1] is recorded as “superior PK profile”. Moreover, in data set [1] (human, in vivo), the Cmax (as a rule, the peak of the concentration-time curve) turned out to be 0.27 µg/mL. For the same compound, in data set [1] (human, in vivo, read-out: AUC0-inf, mean), the AUC(0-inf) is 3.81 µg·h/mL. Besides, the concentration at 24 h in data set [1] (human, in vivo, read-out: C24 hr, mean) was determined as 0.0526 µg/mL. Besides, in data set [1] (human, in vivo, read-out: Tmax, median), the Tmax (usually the time from dosing to the highest level) worked out at 3 h. Also, in data set [2], the “abundance of parent versus metabolites in plasma over time” value is reported as “most abundant species in plasma at all times measured”.
